The results in this text go back to patent US20110008279A1, “Methods and Compositions Relating to Adhesins as Adjuvants” (priority 2005, published 2011).

“Also recorded” adds a separate entry of the source. Bounds are passed on as bounds.

For one assay, the system named is mo-DCs. The assay is described as follows: Cytokine and chemokine secretion by mo-DCs (Bio-Plex, ELISA). The format is cell-based, human. To be noted: for IL-12 released on co-stimulation with R-848: NadA 1.5 μM + R-848 1 μM. How it is done:
Reagents used were tested for low endotoxin contamination using the Limulus amoebocyte assay (Sigma). Dendritic cells were generated from human peripheral blood mononuclear cells (PBMC) as described previously. In brief, PBMC were isolated from buffy coats of healthy donors by Ficoll-Paque Plus density gradient centrifugation (Amersham Pharmacia Biotech AB). Separate monocyte and T-cell fractions were obtained from PBMCs by Percoll density gradient centrifugation (Amersham Pharmacia Biotech AB). Residual T and B cells were removed from monocyte fraction by plastic adherence of 3×10^6 cells per well in 6-well plates (Costar) resulting in CD14^+ monocyte populations of >95% purity (determined by flow cytometry). DC were obtained by 6-d culture adherent monocytes in medium with 20 ng/ml IL-4 (5×10^6 units/mg, Peprotech) and 50 ng/ml GM-CSF (1×10^7 units/mg, Peprotech). Cytokines were added again on day 4 in RPMI-1640 medium supplemented with 10% FBS. Following this procedure more than 90% cells belonged to the immature DC phenotype (CD1a^+, HLADRlow, CD14^−, CD83^−, CD86^low, CD80^low). On day 5 cells were treated with nothing or with recombinant human IFN-γ (1000 U/ml) for 18 h before stimulation with NadA (0.0375-5 μM) or LPS (1 μg/ml). After 24 h cells were harvested and analysed. Culture supernatants were collected frozen in liquid nitrogen and conserved at −80° C. for cytokine analysis.
The antibody pairs used, directed against different non-competing epitopes of a given cytokine, were purchased from BioRad. Calibration curves from recombinant cytokine standard were prepared with four-fold dilution steps in RPMI-1640 medium containing 10% FBS. Assays were carried out in 96-well sterile pre-wetted filter plates at room temperature and protected from light. A mixture containing 5000 microspheres per cytokine was incubated together with standard or sample in a final volume of 50 μl for 30 min, under continuous shaking (300 rpm). After three washes by vacuum filtration with Bio-Plex washing buffer a cocktail of biotinylated antibodies diluted in Bio-Plex detection antibody diluent was added (25 μl to each well). After a 30 minutes incubation and washing, Streptavidin-PE diluted in Bio-Plex Assay buffer was added (50 μl per well). At the end of 10 minutes incubation under continuous shaking and after washing the fluorescence intensity of the beads was measured in a final volume of 125 μl of Bio-Plex assay buffer. Data analysis was done with Bio-Plex Manager software using a five-parametric-curve fitting. The detection limits were […].
IL12(p40) was measured by capture enzyme-linked immunosorbent assay (ELISA) with antibody pairs and cytokine standard purchased from Bender MedSystems. The concentrations of IL12(p40) in the cell-free supernatants were determined with ELISA kits according to the manufacturer's instructions. The detection limit of the assays was […].

Another assay concerns naïve T cells. Briefly: Intracellular detection of IFN-γ and IL-4 in T cells by flow cytometry. The format is cell-based, human. The settings on record: T cells activated by IFN-γ primed, matured mo-DCs. How it is done: Mo-DC pre-treated in various conditions were co-cultured with naïve T cells for five days and re-stimulated with ionomycin 1 μg/ml and PMA 10 ng/ml for 2.5 h and for 3 h in the presence of a Brefeldin-A, (10 μg/ml final concentration). Cells were then washed and fixed for 15 min (Fix and Penn cell permeabilization kit, Caltag). After one washing step cells were permeabilised and stained with FITC conjugated anti interferon-γ mAB (BD-Pharmigen) and PE conjugated anti IL-4 mAb (Caltag) or with irrelevant isotype control for 30 min. Then cells were washed again, resuspended and analysed by flow cytoflorimetry.
(Flow cytometry measures light scatter and fluorescence of single cells or particles in a stream.)

Assay [1] relates to human macrophages. Briefly: NadA binding to human macrophages. To be noted: 37° C. How it is done:
The graphs plot the mean fluorescence intensities (MFI) ±SD measured in human macrophages that have been incubated with NadAΔ351-405-Alexa, at different concentrations (A), or with 100 nM NadAΔ351-405-Alexa in presence of increasing concentrations of unlabelled protein (B), for 3 hours at 37° C. or 0° C. The reported data are the average of three independent experiments repeated in triplicate.
NadA binding to monocyte-derived macrophages was also investigated. A dose-dependent association of NadA to macrophages was confirmed by MFI analysis and competition by non-labelled ligand was used to ascertain whether NadA binding was specific.

The test system of another assay is monocytes. The assay is described as follows: Apoptosis and survival of monocytes (caspase-3 assay, MTT assay). Type of assay: cell-based, human. How it is done:
A) Caspase-3 assay, B) MTT assay.
The survival effect of NadA on monocytes was investigated. […] Apoptosis was not increased after a 40 hour exposure to NadAΔ351-405 or LPS. […] NadA survival effect was compared with the action of LPS or medium alone.
In general terms: Formazan colour is commonly taken as a measure of viable cells.

Assay [2] has as its system human macrophages. The assay is described as follows: Morphology of macrophages (light microscopy). Type of assay: cell-based. As for the experimental part:
DCs cultured for 5 days in 6-well plates (Costar) were treated with recombinant human IFN-γ (1000 U/ml) for 18 h before NadA (1.5 μM) or LPS (1 μg/ml) stimulation for 4 h. Control cultures were untreated cells or treated with IFN-γ alone.
The same experiment was also carried out using macrophages.

[3] abbreviates: after IFN-γ priming, 24 hours, NadAΔ351-405 1 μM.

Turning to NadAΔ351-405, in the assay with mo-DCs (after IFN-γ priming), the “IL-12 released on co-stimulation with R-848” value is 45 ng/mL; the “IL12-p40 maximal secretion relative to LPS” value is recorded as around 2%; the “IL-12p70 secretion level relative to LPS” value is below 2%; the “IL-12p70 secretion, dose response” value is recorded as “reached a plateau below 1 μM NadA”. In the assay on mo-DCs (no IFN-γ priming), the “IL-12 released on co-stimulation with R-848” value was determined as 2 ng/mL. Besides, the “increase of IL-12 release by IFN-γ priming” value with mo-DCs (NadA + R-848) came to 20 fold. Moreover, the “IL-12p70 secretion, dose response” value in the assay with mo-DCs (absence of IFN-γ priming, up to 5 μM NadA) is on record as “undetected”. In addition, in the assay with mo-DCs (setting [3]), the “IL-6 production relative to maximal LPS production” value was around 24% and the “TNFα production relative to maximal LPS production” value was around 24%. For the same substance, the “NadA concentration at which IL-6, TNFα and IL-8 were evident” value in the assay with mo-DCs (non-primed cells) is given as “higher than 1 μM”. For the same substance, the “IL-8 secretion relative to that induced by LPS” value in the assay on mo-DCs (with and without IFN-γ priming) is around 24%. For the same substance, the IL-10 production entry with mo-DCs (with or without IFN-γ priming, up to 5 μM NadA) is “Under no condition in this example was NadA able to induce IL-10 production; also recorded: undetectable”. For the same substance, in the assay with naïve T cells, the “IFN-γ+ T cells, % of total T cell population” value is given as 13-31%; the “IFN-γ+/IL-4+ T cells, % of total T cell population” value is 4-12%; the “IL-4+ T cells, % of total T cell population” value is reported as 3-18%. For the same substance, the “decrease of the signal associated to macrophages by non-labelled ligand” value in the assay with human macrophages [1] is given as −50%. In the assay on monocytes, the “apoptotic effect compared with medium-treated monocytes” value is “four times less” and the “apoptotic effect compared with the amount induced by LPS” value is on record as “two times less”. In addition, in the assay with human macrophages [2], the “cell clustering compared to LPS treatment” value is “reduced clustering”.
